# Experimental data as given in US20220241416A1, “METHODS FOR THE IDENTIFICATION OF SARM1 NADASE ACTIVITY INHIBITORS AND USES THEREOF” (Bar Ilan University, priority 2021, published 2022).
# “Also recorded” adds a separate entry of the source. Where two headings read alike, the source gives them in different places.
# How the values were obtained:
# hSARM1 [1] = target: T1, hSARM1 (Homo sapiens, UniProt Q6SZW1); assay: HPLC analysis of time dependent NAD+ consumption by hSARM1; type: biochemical; settings: 50 μM NAD+
# T1 construct: hSARM1w.t; (26ERL . . . GPT724) that was not mutated in E642, was also expressed and isolated; 6xHis (N); TEV cleavage site (N); made in house; host or cells: HEK293F suspension cells
# T1 sequence (Q6SZW1 with tags, fused parts or gaps): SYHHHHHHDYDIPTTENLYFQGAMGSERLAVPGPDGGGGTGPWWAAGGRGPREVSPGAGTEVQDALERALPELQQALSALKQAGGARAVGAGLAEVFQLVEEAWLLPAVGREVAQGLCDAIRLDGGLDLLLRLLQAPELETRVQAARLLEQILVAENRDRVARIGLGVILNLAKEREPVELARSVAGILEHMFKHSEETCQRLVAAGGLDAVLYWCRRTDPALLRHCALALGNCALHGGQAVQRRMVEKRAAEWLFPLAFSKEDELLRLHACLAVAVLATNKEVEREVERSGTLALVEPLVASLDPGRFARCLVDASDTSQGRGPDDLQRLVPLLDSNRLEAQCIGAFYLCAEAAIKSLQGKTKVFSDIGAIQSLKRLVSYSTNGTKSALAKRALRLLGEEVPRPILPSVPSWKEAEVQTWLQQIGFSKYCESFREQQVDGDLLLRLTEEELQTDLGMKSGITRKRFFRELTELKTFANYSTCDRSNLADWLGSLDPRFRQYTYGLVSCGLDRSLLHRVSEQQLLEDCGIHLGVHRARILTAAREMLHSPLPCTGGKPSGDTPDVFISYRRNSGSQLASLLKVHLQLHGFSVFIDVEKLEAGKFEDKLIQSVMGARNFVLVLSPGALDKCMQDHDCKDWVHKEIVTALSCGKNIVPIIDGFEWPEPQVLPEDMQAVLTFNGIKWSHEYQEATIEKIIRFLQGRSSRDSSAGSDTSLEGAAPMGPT
# Procedure: Purified hSARM1w.t. was first diluted to 800 nM in 25 mM HEPES pH 7.5, 150 mM NaCl, and then mixed in 37° C. with different concentrations of NAD+(in the same buffer) in a 1:1 v/v ratio and incubated for 0, 5 and 30 min. 1:100 (v/v). BSA (NEB Inc. 20 mg/ml) was included, and reactions were stopped by heating at 95° C. for 2 minutes. Where specified, NMN (Sigma-Aldrich-N3501) was added in different concentrations. For control, NAD+ consumption was compared to a commercially available porcine brain NADase 0.025 units/ml (Sigma-Aldrich-N9879).
# HPLC measurements were performed using a Merck Hitachi Elite LaChrom HPLC system equipped with an autosampler, UV detector and quaternary pump. HPLC traces were monitored at 260 nm and integrated using EZChrom Elite software. 10 μL of each sample were injected onto a Waters Spherisorb ODS1 C18 RP HPLC Column (5 μm particle size, 4.6 mm×150 mm ID). HPLC solvents are: A: 100% methanol; B: 120 mM sodium phosphate pH 6.0; C double-distilled water (DDW). The column was pre-equilibrated with B:C mixture ratio of 80:20. Chromatography was performed at room temperature with a flow rate of 1.5 ml/min. Each analysis cycle was 12 min long as follows (A:B:C, v/v): fixed 0:80:20 0-4 min; gradient to 20:80:0 4-6 min; fixed 20:80:0 from 6-9 min. gradient to 0:80:20 from 9-10 min; fixed 0:80:20 from 10-12 min. The NAD+ hydrolysis product ADPR was eluted at the isocratic stage of the chromatography while NAD+ elutes in the methanol gradient stage.
# Mouse DRG explants [2] = assay: Axon degeneration assay after axotomy, DRG explants; type: cell-based; settings: 10-30 μM compound; 16 hours post axotomy
# Procedure: (§1) FIG. 15A. Mouse DRG explants cultures were grown in NGF containing media for 96 hours. Right before axotomy, the media was exchanged and supplemented with either 10-30 μM of the hSARM1 inhibitory compounds or just with 0.2% DMSO for control, and then the culture were left to grow for additional 16 hours. The white dashed lines indicate cut site (axotomy). To evaluate toxic side effects, we applied […] of the inhibitory compounds without performing axotomy. The axons were stained with anti-Tuj1 antibody.
# (§2) Dorsal root ganglion (DRG) were dissected from E13.5 wild-type mice and plated in 8-wells chamber coated with 10 μg/ml poly-d-lysin (Sigma-Aldrich, St Louis. Mo.) and 10 μg/ml mouse Laminin (Sigma-Aldrich). The DRGs were grown in Neurobasal™-A (NB, GIBCO, 10888022) medium supplemented with B27 (Gibco, Waltham, Mass.), penicillin-streptomycin solution, glutamine (Biological Industries, Beit HaEmek, Israel), and NGF (Alomone Labs. Jerusalem, Israel) in a humidified incubator (37° C. 5% CO2).
# (§3) After 96 h, the medium was exchanged to NGF containing medium, supplemented with 10-30 μM SARM1 inhibitory compounds, which were first dissolved in DMSO to a 10 mM stock concentration. For axotomy, axons were cut using a needle, in close proximity to the cell body and were examined 16 hours post-axotomy. […]
# (§4) Images were binarized such that pixels corresponding to axons converted to white, while all other regions converted to black. The images were analyzed using Image) software with algorithm that distinguishes fragmented from intact axonal segments. To each image we calculated the degeneration index (DI) defined as the ratio of fragmented to intact axon number. To quantify axonal protection, we normalized the DI values to DMSO with axotomy, and then we divide one by each calculated value. […] To quantify axonal degeneration caused by the compounds' toxicity, we normalized the DI values to DMSO control without axotomy and generated a degeneration index. From each explant, 4 nonoverlapping frames were randomly collected and quantified per experimental condition.
# zfSARM1 = target: T2, zfSARM1 (Danio rerio, UniProt F1QWA8); assay: Effect of hSARM1 inhibitors on zfSARM1 NADase activity (ADPR by HPLC); type: biochemical, Zebrafish
# T2 sequence (F1QWA8 1-713): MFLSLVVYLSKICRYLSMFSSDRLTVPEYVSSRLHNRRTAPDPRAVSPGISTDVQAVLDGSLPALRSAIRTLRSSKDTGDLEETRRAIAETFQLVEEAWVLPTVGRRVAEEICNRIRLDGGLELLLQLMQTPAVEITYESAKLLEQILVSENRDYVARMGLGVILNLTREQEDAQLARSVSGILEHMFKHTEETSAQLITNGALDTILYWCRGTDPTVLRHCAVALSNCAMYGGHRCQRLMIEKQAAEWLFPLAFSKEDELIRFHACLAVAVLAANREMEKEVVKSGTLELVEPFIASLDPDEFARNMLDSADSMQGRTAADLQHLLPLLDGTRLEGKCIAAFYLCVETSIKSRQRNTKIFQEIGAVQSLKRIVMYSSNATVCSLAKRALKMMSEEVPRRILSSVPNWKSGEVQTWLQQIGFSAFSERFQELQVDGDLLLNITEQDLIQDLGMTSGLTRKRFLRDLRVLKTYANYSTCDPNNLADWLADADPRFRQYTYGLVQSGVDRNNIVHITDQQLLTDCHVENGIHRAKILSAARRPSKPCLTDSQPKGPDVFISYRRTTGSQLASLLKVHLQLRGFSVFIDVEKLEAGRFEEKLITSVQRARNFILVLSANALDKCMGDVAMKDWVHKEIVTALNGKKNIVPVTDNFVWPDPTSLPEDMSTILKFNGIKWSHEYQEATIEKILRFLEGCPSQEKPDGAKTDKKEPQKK
# hSARM1 [3] = target: T1, hSARM1; assay: Determination of IC50 and mode of inhibition of hSARM1 NADase (ADPR by HPLC); type: biochemical; settings: for mode of inhibition, Lineweaver-Burk plot: 10 μM inhibitor, NAD+ 1-160 μM; for IC50: 50 μM NAD+, 10 min pre-incubation at room temperature, 10 min at 37° C.
# Mouse DRG explants [4] = assay: Toxic side effects on DRG explants without axotomy; type: cell-based; settings: 10-30 μM compound; no axotomy
# Procedure: as §1, §2, §3, §4
# hSARM1 FP255-6RR (human) = hSARM1 FP255-6RR (human) (UniProt Q6SZW1); assay: cell-based or functional assay
# [5] = target: hSARM1RR216-7EE/FP255-6RR (human) (UniProt Q6SZW1); assay: cell-based or functional assay
Compound,protection of axons after axotomy (Mouse DRG explants [2]),"mode of inhibition, Lineweaver-Burk plot (hSARM1 [3])",toxic effect on axons without axotomy (Mouse DRG explants [4]),IC50 (hSARM1 [3]) [µM],further results
"NC(=O)c1ccc[n+]([C@@H]2O[C@H](COP(=O)([O-])O)[C@@H](O)[C@H]2O)c1 [NMN, nicotinamide mononucleotide, reference compound]",,,,,effect on hSARM1 NADase activity (hSARM1 [1]; 0.2 mM NMN): no visible effect; increase in hSARM1 NADase activity (hSARM1 [1]; 1 mM NMN): 30%
O=NN1CCCCC1 [TK138],high level of protection; also recorded: highest level of protection,competitive pattern,only very mildly toxic; also recorded: significant toxic effect,,"EC50 (zfSARM1; 50 μM NAD+, ADPR production by HPLC, read-out: EC50, activation of zfSARM1 NADase): 2.7 µM"
CCOC(=O)Cn1sc2nc(C)cc(C)c2c1=O [TK142],only mild protection,competitive pattern,not toxic at all,≤ 10,effect on zfSARM1 NADase activity (words) (zfSARM1): concentration-dependent inhibitory effects; effect on zfSARM1 NADase activity (words) (zfSARM1; listed as TK 142): specific inhibitory effect
O=C(c1ccccn1)N1C[C@H]2OC(=O)N(CCCN3CCOCC3)[C@H]2C1 [TK174],did not protect axons after axotomy,,not toxic,≤ 10,
hSARM1 FP255-6RR (from UniProt Q6SZW1 26-724) (enzyme),,,,,"cell death 24 hours after transfection (resazurin fluorescence assay, HEK-293T cells) (hSARM1 FP255-6RR (human)): 50%"
hSARM1RR216-7EE/FP255-6RR (from UniProt Q6SZW1 26-724) (enzyme),,,,,"cell death 24 hours after transfection (resazurin fluorescence assay, HEK-293T cells) [5]: 50%"
